Paper PMC2289219 (The Journal of Cell Biology, 1991)

Experiments:
[1] = test system: Bovine brain ECs; format: cell-based
[2] = test system: cAMP levels; format: cell-based
[3] = test system: monolayers of brain ECs
[4] = test system: BBB; parameters: species or system rats; conditions: rat, in vivo

8-(4-chlorophenylthio)-adenosine-3':5' mono- phosphate, cyclic [CPTcAMP]
Effect on electrical resistance (agents that elevate cAMP) [1]: increases rapidly

O=S(=O)(NCCNCC=Cc1ccc(Br)cc1)c1cccc2cnccc12 [H-89, N-[2-(p-bromocinnamylamino)ethyl]-5-isoquinolinesulfonamide]
Effect of protein kinase inhibitors on resistance [1]: decreased

C=C[C@@]1(C)CC(=O)[C@]2(O)[C@@]3(C)[C@@H](O)CCC(C)(C)[C@@H]3[C@H](O)[C@H](OC(C)=O)[C@@]2(C)O1 [forskolin]
Effect on electrical resistance (agents that elevate cAMP) [1]: also effective
Increase in cAMP levels [2]: two to threefold increase

CC(C)NCC(O)COc1cccc2ccccc12 (centres unmarked) [propranolol]
Flux across high resistance monolayers ([3]; Fig. 7 top, about 300 nM labeled tracer, apical to basolateral, 37): moved rapidly

CN[C@@H]1C[C@H]2O[C@@](C)([C@@H]1OC)n1c3ccccc3c3c4c(c5c6ccccc6n2c5c31)C(=O)NC4 [staurosporine]
Increase in ability of peripherally administered BSA to enter the brain [4]: three to fivefold
Increase in ability of peripherally administered sucrose to enter the brain [4]: three to fivefold

OC[C@H]1O[C@@](CO)(O[C@H]2O[C@H](CO)[C@@H](O)[C@H](O)[C@H]2O)[C@@H](O)[C@@H]1O [sucrose]
Flux across low resistance monolayers [3]: much greater than that across high resistance monolayers

Atrial natriuretic factor
Effect on resistance (elevated cGMP) [1]: simi- lar effects

IGF-1
Whether the factor accounts for the activity of astrocyte CM [1]: could not be accounted for fully

PDGF
Whether the factor accounts for the activity of astrocyte CM [1]: could not be accounted for fully

RO20-1724
Effect on electrical resistance (agents that elevate cAMP) [1]: increases rapidly
Increase in cAMP levels [2]: two to threefold increase

calcitonin gene-related peptide
Effect on electrical resistance (agents that elevate cAMP) [1]: also effective
